According to PubChem BioAssay AID270 (DTP/NCI, 2004):
Values joined by “and” are separate entries in the source; they are usually repeats but may differ in a detail not shown here. Equal values may be shown once. Results filed as inconclusive are left out.

Tested on: BDF1 mice, s.c. Lewis lung carcinoma, T/C %
Assay: NCI In Vivo Anticancer Drug Screen. Data for tumor model Lewis Lung Carcinoma (subcutaneous) in B6D2F1 (BDF1) mice
Procedure, shortened: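 Tumor-bearing mice were treated with test compound, and either survival or tumor size was recorded. Values are the treated-group measurement divided by that of the vehicle-treated control group.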

SMILES: O=P1(NCCCl)OCCCN1CCCl (stereo not drawn)
- T/C (endpoint: mean tumor weight, dose: 12.5 mg/kg/injection, schedule: Q01DX011 (ip), vehicle: saline, higher = larger tumour): 114 % of control
- T/C (endpoint: mean tumor weight, dose: 25.0 mg/kg/injection, schedule: Q01DX011 (ip), vehicle: saline, higher = larger tumour): 14 % of control
- T/C (endpoint: mean tumor weight, dose: 50.0 mg/kg/injection, schedule: Q01DX011 (ip), vehicle: saline, higher = larger tumour): 2 % of control
- T/C (endpoint: median survival time, dose: 25.0 mg/kg/injection, schedule: Q01DX009 (ip), vehicle: Klucel (hydroxypropylcellulose) (HPC), higher = longer survival): 100 % of control
- T/C (endpoint: median survival time, dose: 50.0 mg/kg/injection, schedule: Q01DX001 (ip), vehicle: saline, higher = longer survival): 106 % of control
- T/C (endpoint: median survival time, dose: 50.0 mg/kg/injection, schedule: Q01DX009 (ip), vehicle: Klucel (hydroxypropylcellulose) (HPC), higher = longer survival): 150 % of control
- T/C (endpoint: median survival time, dose: 100.0 mg/kg/injection, schedule: Q01DX001 (ip), vehicle: saline, higher = longer survival): 124 % of control
- T/C (endpoint: median survival time, dose: 200.0 mg/kg/injection, schedule: Q01DX001 (ip), vehicle: saline, higher = longer survival): 200 % of control and 243 % of control
- T/C (endpoint: median survival time, dose: 400.0 mg/kg/injection, schedule: Q01DX001 (ip), vehicle: saline, higher = longer survival): 200 % of control and 243 % of control
- T/C (endpoint: median survival time, dose: 800.0 mg/kg/injection, schedule: Q01DX001 (ip), vehicle: saline, higher = longer survival): 243 % of control

SMILES: CCC1CCC(NC(=O)N(CCF)N=O)CC1 (stereo not drawn)
- T/C (endpoint: median tumor weight (est.), dose: 50.0 mg/kg/injection, schedule: Q01DX001 (ip), vehicle: saline with Tween-80, higher = larger tumour): 62 % of control

SMILES: COC(=O)C1CCC(NC(=O)N(CCCl)N=O)CC1 (stereo not drawn)
- T/C (endpoint: median survival time, dose: 14.0 mg/kg/injection, schedule: Q01DX001 (ip), vehicle: saline with Tween-80, higher = longer survival): 206 % of control
- T/C (endpoint: median survival time, dose: 21.0 mg/kg/injection, schedule: Q01DX001 (ip), vehicle: saline with Tween-80, higher = longer survival): 223 % of control
- T/C (endpoint: median survival time, dose: 23.0 mg/kg/injection, schedule: Q01DX001 (ip), vehicle: saline with Tween-80, higher = longer survival): 180 % of control
- T/C (endpoint: median survival time, dose: 24.0 mg/kg/injection, schedule: Q01DX001 (ip), vehicle: saline with Tween-80, higher = longer survival): 152 % of control
- T/C (endpoint: median survival time, dose: 32.0 mg/kg/injection, schedule: Q01DX001 (ip), vehicle: saline with Tween-80, higher = longer survival): 188 % of control
- T/C (endpoint: median survival time, dose: 36.0 mg/kg/injection, schedule: Q01DX001 (ip), vehicle: saline with Tween-80, higher = longer survival): 219 % of control
- T/C (endpoint: median survival time, dose: 54.0 mg/kg/injection, schedule: Q01DX001 (ip), vehicle: saline with Tween-80, higher = longer survival): 198 % of control
- T/C (endpoint: median survival time, dose: 81.0 mg/kg/injection, schedule: Q01DX001 (ip), vehicle: saline with Tween-80, higher = longer survival): 94 % of control

SMILES: O=C(Nc1ccc(C2=NCCN2)cc1)c1ccc(C(=O)Nc2ccc(C3=NCCN3)cc2)c([N+](=O)[O-])c1
- T/C (endpoint: mean tumor weight, dose: 4.0 mg/kg/injection, schedule: Q01DX011 (ip), vehicle: saline, higher = larger tumour): 122 % of control
- T/C (endpoint: mean tumor weight, dose: 8.0 mg/kg/injection, schedule: Q01DX011 (ip), vehicle: saline, higher = larger tumour): 85 % of control
- T/C (endpoint: mean tumor weight, dose: 16.0 mg/kg/injection, schedule: Q01DX011 (ip), vehicle: saline, higher = larger tumour): 26 % of control

SMILES: O=NN(CCCl)C(=O)NC1CCS(=O)(=O)C1 (stereo not drawn) (tested in a mixture with another compound)
- T/C (endpoint: median survival time, dose: 11.0 mg/kg/injection, schedule: Q01DX001 (ip), vehicle: saline with Tween-80, higher = longer survival): 88 % of control
- T/C (endpoint: median survival time, dose: 16.0 mg/kg/injection, schedule: Q01DX001 (ip), vehicle: saline with Tween-80, higher = longer survival): 100 % of control
- T/C (endpoint: median survival time, dose: 30.0 mg/kg/injection, schedule: Q01DX001 (ip), vehicle: saline with Tween-80, higher = longer survival): 92 % of control

SMILES: CC(C)=CCC1=C(O)c2ccccc2C(=O)C1=O
- T/C (endpoint: mean tumor weight, dose: 45.0 mg/kg/injection, schedule: Q01DX011 (ip), vehicle: water, higher = larger tumour): 71 % of control
- T/C (endpoint: mean tumor weight, dose: 67.0 mg/kg/injection, schedule: Q01DX011 (ip), vehicle: water, higher = larger tumour): 85 % of control
- T/C (endpoint: mean tumor weight, dose: 100.0 mg/kg/injection, schedule: Q01DX011 (ip), vehicle: water, higher = larger tumour): 93 % of control

SMILES: O=c1cc(CO)[nH]cc1O
- T/C (endpoint: mean tumor weight, dose: 25.0 mg/kg/injection, schedule: Q01DX011 (ip), vehicle: methylcellulose (MC), higher = larger tumour): 81 % of control
- T/C (endpoint: mean tumor weight, dose: 50.0 mg/kg/injection, schedule: Q01DX011 (ip), vehicle: methylcellulose (MC), higher = larger tumour): 77 % of control
- T/C (endpoint: mean tumor weight, dose: 100.0 mg/kg/injection, schedule: Q01DX011 (ip), vehicle: methylcellulose (MC), higher = larger tumour): 63 % of control
- T/C (endpoint: mean tumor weight, dose: 500.0 mg/kg/injection, schedule: Q01DX011 (ip), vehicle: methylcellulose (MC), higher = larger tumour): 62 % of control
- T/C (endpoint: mean tumor weight, dose: 600.0 mg/kg/injection, schedule: Q01DX011 (ip), vehicle: methylcellulose (MC), higher = larger tumour): 82 % of control
- T/C (endpoint: mean tumor weight, dose: 700.0 mg/kg/injection, schedule: Q01DX011 (ip), vehicle: methylcellulose (MC), higher = larger tumour): 115 % of control

SMILES: COC(=O)[C@H]1[C@H]2C[C@@H]3c4[nH]c5cc(OC)ccc5c4CCN3C[C@H]2C[C@@H](OC(=O)c2cc(OC)c(OC)c(OC)c2)[C@@H]1OC
- T/C (endpoint: median survival time, dose: 0.25 mg/kg/injection, schedule: Q01DX009 (ip), vehicle: Klucel (hydroxypropylcellulose) (HPC), higher = longer survival): 91 % of control
- T/C (endpoint: median survival time, dose: 0.5 mg/kg/injection, schedule: Q01DX009 (ip), vehicle: Klucel (hydroxypropylcellulose) (HPC), higher = longer survival): 97 % of control and 243 % of control
- T/C (endpoint: median survival time, dose: 1.0 mg/kg/injection, schedule: Q01DX009 (ip), vehicle: Klucel (hydroxypropylcellulose) (HPC), higher = longer survival): 103 % of control
- T/C (endpoint: median survival time, dose: 2.0 mg/kg/injection, schedule: Q01DX009 (ip), vehicle: Klucel (hydroxypropylcellulose) (HPC), higher = longer survival): 96 % of control and 243 % of control
